Data published in ChEMBL document CHEMBL1128189, “alpha-Hydroxy phosphinyl-based inhibitors of human renin” (J Med Chem, 1995).

Legend:
Renin [1] = target: T1, Renin (Homo sapiens, UniProt P00797); test: Evaluation of inhibitory activity against human renin. value in parentheses indicate no. of determinations
T1 sequence (P00797 whole entry): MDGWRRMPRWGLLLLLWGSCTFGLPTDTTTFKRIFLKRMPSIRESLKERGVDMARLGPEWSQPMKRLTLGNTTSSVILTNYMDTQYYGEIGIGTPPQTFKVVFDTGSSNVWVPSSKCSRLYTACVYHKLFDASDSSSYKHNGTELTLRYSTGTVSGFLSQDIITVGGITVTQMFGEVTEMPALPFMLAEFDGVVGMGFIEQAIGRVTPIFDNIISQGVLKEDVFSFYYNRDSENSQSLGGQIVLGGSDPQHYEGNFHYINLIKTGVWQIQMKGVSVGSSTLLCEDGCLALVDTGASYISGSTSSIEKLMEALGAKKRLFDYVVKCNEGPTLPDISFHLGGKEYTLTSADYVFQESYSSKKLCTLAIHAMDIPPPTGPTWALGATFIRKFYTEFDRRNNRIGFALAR

Renin [2] = target: T1, Renin; test: Evaluation of inhibitory activity against human renin.
Renin [3] = target: T1, Renin; test: Evaluation of inhibitory activity against human renin

Row | SMILES | IC50 (Renin [1]) | IC50 (Renin [3]) | further results
1 | CCOP(=O)(OCC)[C@H](O)[C@H](CC1CCCCC1)NC(=O)[C@H](CC(C)C)NC(=O)[C@H](Cc1ccccc1)NC(=O)C1CCCC1 |  |  | IC50 (Renin [2]): 0.038 µM
2 | CCOC(=O)[C@H](O)[C@H](CC1CCCCC1)NC(=O)[C@H](CC(C)C)NC(=O)[C@H](Cc1ccccc1)NC(=O)OC(C)(C)C |  | 0.005 µM | 
3 | COP(=O)(OC)[C@H](O)[C@H](CC1CCCCC1)NC(=O)[C@H](CC(C)C)NC(=O)[C@H](Cc1ccccc1)NC(=O)CCCCCN |  | 0.031 µM | 
4 | COP(=O)(OC)[C@H](O)[C@H](CC1CCCCC1)NC(=O)[C@H](Cc1cnc[nH]1)NC(=O)[C@H](Cc1ccccc1)NC(=O)C1CCCC1 |  | 0.22 µM | 
5 | CCOP(=O)(OCC)[C@@H](O)[C@H](CC1CCCCC1)NC(=O)[C@H](CC(C)C)NC(=O)[C@H](Cc1ccccc1)NC(=O)OC(C)(C)C |  |  | IC50 (Renin [2]): 41 µM
6 | CCOP(=O)(OCC)[C@H](O)[C@H](CC1CCCCC1)NC(=O)[C@H](CC(C)C)NC(=O)[C@H](Cc1ccccc1)NC(=O)OC(C)(C)C |  |  | IC50 (Renin [2]): 0.029 µM
7 | COP(=O)(OC)[C@H](O)[C@H](CC1CCCCC1)NC(=O)[C@H](Cc1cnc[nH]1)NC(=O)[C@H](Cc1ccccc1)NC(=O)N1CCOCC1 |  | 0.041 µM | 
8 | COP(=O)(OC)[C@H](O)[C@H](CC1CCCCC1)NC(=O)[C@H](CC(C)C)NC(=O)[C@H](Cc1ccccc1)NC(=O)N1CCOCC1 |  | 0.0085 µM | 
9 | COP(=O)(OC)[C@H](O)[C@H](CC1CCCCC1)NC(=O)[C@H](CC(C)C)NC(=O)[C@H](Cc1ccccc1)NC(=O)OC(C)(C)C |  |  | IC50 (Renin [2]): 0.01 µM

Second part, led by results:

Row | IC50 (Renin [1]) | IC50 (Renin [3]) | SMILES | further results
10 | 0.21 µM |  | CCP(=O)(OC)C(O)[C@H](CC1CCCCC1)NC(=O)[C@H](CC(C)C)NC(=O)[C@H](Cc1ccccc1)NC(=O)C1CCCC1 (stereo in doubt; 28) | 
11 | 2.4 µM |  | CCP(=O)(OC)C(O)[C@H](CC1CCCCC1)NC(=O)[C@H](CC(C)C)NC(=O)[C@H](Cc1ccccc1)NC(=O)C1CCCC1 (stereo in doubt; 30) | 
12 |  | 27 µM | COP(=O)(O)[C@H](O)[C@H](CC1CCCCC1)NC(=O)[C@H](CC(C)C)NC(=O)[C@H](Cc1ccccc1)NC(=O)C1CCCC1 | 
13 | 0.4 µM |  | CCP(=O)(CC)[C@H](O)[C@H](CC1CCCCC1)NC(=O)[C@H](CC(C)C)NC(=O)[C@H](Cc1ccccc1)NC(=O)C1CCCC1 | 
14 |  | 0.016 µM | COP(=O)(OC)[C@H](O)[C@H](CC1CCCCC1)NC(=O)[C@H](CC(C)C)NC(=O)[C@H](Cc1ccccc1)NC(=O)C1CCCC1 | 
15 | 5.2 µM |  | CCP(=O)(CC)[C@@H](O)[C@H](CC1CCCCC1)NC(=O)[C@H](CC(C)C)NC(=O)[C@H](Cc1ccccc1)NC(=O)C1CCCC1 | 
16 | 0.044 µM |  | CCP(=O)(OC)C(O)[C@H](CC1CCCCC1)NC(=O)[C@H](CC(C)C)NC(=O)[C@H](Cc1ccccc1)NC(=O)C1CCCC1 (stereo in doubt; 29) | 
